Experimental data: patent publication US11247990B1, “Bicyclic fused pyridine compounds as inhibitors of TAM kinases” (ARRAY BIOPHARMA INC., priority 2017, dated 2022)

Legend:
Details in all cases: averaged IC50
[1] = target: His-tagged recombinant human AXL cytoplasmic domain (Homo sapiens (Human), UniProt P30530); assay: AXL Enzyme Assay (LanthaScreen Eu Kinase Binding, TR-FRET)
Method in brief: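 LanthaScreen Eu kinase binding format, incubated 60 min at 22 °C and read by TR-FRET dual-wavelength emission ratio as percent of control. IC50 taken where a 4-parameter logistic fit crosses 50 POC.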

[2] = target: His-tagged recombinant human MER cytoplasmic domain (Homo sapiens (Human), UniProt Q12866); assay: MER Enzyme Assay (LanthaScreen Eu Kinase Binding, TR-FRET)
Method in brief: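 LanthaScreen Eu kinase binding (tracer displacement) assay with His-tagged human MER cytoplasmic domain, 60 min incubation at 22 °C. TR-FRET dual-wavelength emission ratio converted to percent of control; IC50 is where the 4-parameter logistic fit crosses 50 POC.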

[3] = target: GST-tagged recombinant human TYRO3 kinase domain (Homo sapiens (Human), UniProt Q06418); assay: TYRO3 Enzyme Assay (LanthaScreen Eu Kinase Binding, TR-FRET)
Method in brief: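 LanthaScreen Eu binding (tracer displacement) format read by TR-FRET after 60 min at 22 °C. Emission ratio converted to percent of control; IC50 taken where a 4-parameter logistic fit crosses 50 POC.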

Sequence of His-tagged recombinant human MER cytoplasmic domain (Q12866 527-999): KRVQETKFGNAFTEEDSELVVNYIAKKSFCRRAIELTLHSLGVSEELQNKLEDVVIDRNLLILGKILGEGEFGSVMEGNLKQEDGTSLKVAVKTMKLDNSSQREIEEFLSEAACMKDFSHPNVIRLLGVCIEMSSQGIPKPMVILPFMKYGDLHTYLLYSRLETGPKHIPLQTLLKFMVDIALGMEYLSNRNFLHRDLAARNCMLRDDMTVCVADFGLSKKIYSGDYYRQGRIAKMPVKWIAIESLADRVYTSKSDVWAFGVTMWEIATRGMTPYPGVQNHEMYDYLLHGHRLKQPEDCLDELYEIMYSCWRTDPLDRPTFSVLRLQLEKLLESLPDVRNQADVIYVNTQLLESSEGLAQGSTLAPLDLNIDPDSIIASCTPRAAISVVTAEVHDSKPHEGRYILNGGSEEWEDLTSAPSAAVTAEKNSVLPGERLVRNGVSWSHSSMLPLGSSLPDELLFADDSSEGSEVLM
Sequence of His-tagged recombinant human AXL cytoplasmic domain (P30530 473-894): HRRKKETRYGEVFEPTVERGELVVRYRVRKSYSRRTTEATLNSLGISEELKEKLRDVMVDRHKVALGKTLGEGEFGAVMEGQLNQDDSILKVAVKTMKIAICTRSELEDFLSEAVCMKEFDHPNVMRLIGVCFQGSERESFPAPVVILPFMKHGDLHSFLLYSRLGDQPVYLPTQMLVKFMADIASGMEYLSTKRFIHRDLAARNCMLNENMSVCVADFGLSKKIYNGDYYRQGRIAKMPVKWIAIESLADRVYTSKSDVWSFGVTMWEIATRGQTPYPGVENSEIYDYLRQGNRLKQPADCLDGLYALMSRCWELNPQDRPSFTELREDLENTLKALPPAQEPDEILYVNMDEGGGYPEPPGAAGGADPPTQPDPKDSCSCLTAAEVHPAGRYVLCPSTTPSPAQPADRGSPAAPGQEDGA
Sequence of GST-tagged recombinant human TYRO3 kinase domain (Q06418 518-790): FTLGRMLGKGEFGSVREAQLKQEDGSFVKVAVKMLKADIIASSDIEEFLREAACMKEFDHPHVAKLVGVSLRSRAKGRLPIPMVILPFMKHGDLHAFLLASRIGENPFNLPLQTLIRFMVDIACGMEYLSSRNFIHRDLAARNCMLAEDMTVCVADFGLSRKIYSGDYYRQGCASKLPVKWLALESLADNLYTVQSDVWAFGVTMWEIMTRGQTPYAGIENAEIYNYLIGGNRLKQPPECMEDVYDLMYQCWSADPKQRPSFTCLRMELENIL

IC50 [1] [µM] | IC50 [2] [µM] | IC50 [3] [µM] | SMILES
< 0.01 | < 0.01 | < 0.01 | CNc1cc2c(cn1)c(-c1cnn(C)c1)nn2[C@H]1CC[C@@H](Oc2nccnc2C(F)(F)F)CC1 [Example 171, N-methyl-3-(1-methyl-1H-pyrazol-4-yl)-1-((1s,4s)-4-((3-(trifluoromethyl)pyrazin-2-yl)oxy)cyclohexyl)-1H-pyrazolo[4,3-c]pyridin-6-amine]
< 0.01 | < 0.01 | < 0.01 | CCNc1cc2c(cn1)c(-c1cnn(C)c1)nn2[C@H]1CC[C@@H](Oc2cccnc2C(F)(F)F)CC1 [Example 184, N-ethyl-3-(1-methyl-1H-pyrazol-4-yl)-1-((1s,4s)-4-((2-(trifluoromethyl)pyridin-3-yl)oxy)cyclohexyl)-1H-pyrazolo[4,3-c]pyridin-6-amine]
< 0.01 | < 0.01 | 0.01 to 0.1 | CCNc1cc2c(cn1)c(N1CCC[C@H](NC)C1)nn2[C@H]1CC[C@@H](Oc2nccc(C(F)(F)F)c2F)CC1 [Example 338, N-ethyl-1-((1s,4R)-4-((3-fluoro-4-(trifluoromethyl)pyridin-2-yl)oxy)cyclohexyl)-3-((S)-3-(methylamino)piperidin-1-yl)-1H-pyrazolo[4,3-c]pyridin-6-amine]
< 0.01 | < 0.01 | < 0.01 | CCNc1cc2c(cn1)c(-c1ccc(S(C)(=O)=O)cc1)nn2[C@H]1CC[C@@H](Oc2cn(C)nc2C(F)(F)F)CC1 [Example 290, N-ethyl-1-((1s,4s)-4-((1-methyl-3-(trifluoromethyl)-1H-pyrazol-4-yl)oxy)cyclohexyl)-3-(4-(methylsulfonyl)phenyl)-1H-pyrazolo[4,3-c]pyridin-6-amine]
< 0.01 | < 0.01 | 0.01 to 0.1 | CNc1cc2c(cn1)c(-c1cnn(CCS(C)(=O)=O)c1)nn2[C@H]1CC[C@@H](Oc2nccnc2C)CC1 [Example 211, N-methyl-1-((1s,4s)-4-((3-methylpyrazin-2-yl)oxy)cyclohexyl)-3-(1-(2-(methylsulfonyl)ethyl)-1H-pyrazol-4-yl)-1H-pyrazolo[4,3-c]pyridin-6-amine]
< 0.01 | < 0.01 | < 0.01 | CCNc1cc2c(cn1)c(-c1cnn(C)c1)nn2[C@H]1CC[C@@H](Oc2c[nH]nc2C(F)(F)F)CC1 [Example 311, N-ethyl-3-(1-methyl-1H-pyrazol-4-yl)-1-((1s,4s)-4-((3-(trifluoromethyl)-1H-pyrazol-4-yl)oxy)cyclohexyl)-1H-pyrazolo[4,3-c]pyridin-6-amine]
< 0.01 | < 0.01 | 0.01 to 0.1 | CCNc1cc2c(cn1)c(N1CC3COCC3C1)nn2[C@H]1CC[C@@H](Oc2nccc(C(F)(F)F)c2F)CC1 (stereo partly drawn) [Example 342, N-ethyl-1-((1s,4s)-4((3-fluoro-4-(trifluoromethyl)pyridin-2-yl)oxy)cyclohexyl)-3-(tetrahydro-1H-furo[3,4-c]pyrrol-5(3H)-yl)-1H-pyrazolo[4,3-c]pyridin-6-amine]
< 0.01 | < 0.01 | < 0.01 | CCNc1cc2c(cn1)c(-c1cnn(C[C@@H](O)C(C)(C)O)c1)nn2[C@H]1CC[C@@H](Oc2cccc(F)c2F)CC1 [Example 446, (R)-1-(4-(1-((1s,4S)-4-(2,3-difluorophenoxy)cyclohexyl)-6-(ethylamino)-1H-pyrazolo[4,3-c]pyridin-3-yl)-1H-pyrazol-1-yl)-3-methylbutane-2,3-diol]
< 0.01 | < 0.01 | 0.01 to 0.1 | CCNc1cc2c(cn1)c(-c1cnn(C[C@@H](O)CO)c1)nn2[C@H]1CC[C@@H](Oc2cccc(Cl)c2)CC1 [Example 422]
< 0.01 | < 0.01 | 0.01 to 0.1 | CNc1cc2c(cn1)c(-c1cnn(C(C)(C)CO)c1)nn2[C@H]1CC[C@@H](Oc2ccccc2F)CC1 [Example 395, 2-(4-(1-((1s,4s)-4-(2-fluorophenoxy)cyclohexyl)-6-(methylamino)-1H-pyrazolo[4,3-c]pyridin-3-yl)-1H-pyrazol-1-yl)-2-methylpropan-1-ol]
< 0.01 | < 0.01 | < 0.01 | CNc1cc2c(cn1)c(-c1cnn(C)c1)nn2[C@H]1CC[C@@H](Oc2cccc3ncc(F)cc23)CC1 [Example 384, 1-((1,4s)-4-((3-fluoroquinolin-5-yl)oxy)cyclohexyl)-N-methyl-3-(1-methyl-1H-pyrazol-4-yl)-1H-pyrazolo[4,3-c]pyridin-6-amine]
< 0.01 | < 0.01 | < 0.01 | CNc1cc2c(cn1)c(-c1ccc3c(c1)CN(C)C3=O)nn2[C@H]1CC[C@@H](Oc2cn(C)nc2C(F)(F)F)CC1 [Example 286, 2-methyl-5-(1-((1s,4s)-4-((1-methyl-3-(trifluoromethyl)-1H-pyrazol-4-yl)oxy)cyclohexyl)-6-(methylamino)-1H-pyrazolo[4,3-c]pyridin-3-yl)isoindolin-1-one]
< 0.01 | < 0.01 | < 0.01 | CCNc1cc2c(cn1)c(-c1cnn(C(CO)CO)c1)nn2[C@H]1CC[C@@H](Oc2cccc(F)c2F)CC1 [Example 415, 2-(4-(1-((1s,4s)-4-(2,3-difluorophenoxy)cyclohexyl)-6-(ethylamino)-1H-pyrazolo[4,3-c]pyridin-3-yl)-1H-pyrazol-1-yl)propane-1,3-diol]
< 0.01 | < 0.01 | 0.01 to 0.1 | CCNc1cc2c(cn1)c(C1CCCN(C)C1)nn2[C@H]1CC[C@@H](Oc2nccc(C(F)(F)F)c2F)CC1 (stereo partly drawn) [Example 324, N-ethyl-1-((1s,4s)-4-((3-fluoro-4-(trifluoromethyl)pyridin-2-yl)oxy)cyclohexyl)-3-(1-methylpiperidin-3-yl)-1H-pyrazolo[4,3-c]pyridin-6-amine]
< 0.01 | < 0.01 | < 0.01 | CCNc1cc2c(cn1)c(N1CC[C@@H](N(C)C)C1)nn2[C@H]1CC[C@@H](Oc2nccc(C(F)(F)F)c2F)CC1 (stereo in doubt) [Example 334, 3-(®-3-(dimethylamino)pyrrolidin-1-yl)-N-ethyl-1-((1s,4S)-4-((3-fluoro-4-(trifluoromethyl)pyridin-2-yl)oxy)cyclohexyl)-1H-pyrazolo[4,3-c]pyridin-6-amine]
< 0.01 | < 0.01 | < 0.01 | CCNc1cc2c(cn1)c(-c1cnn(C[C@H](O)CO)c1)nn2[C@H]1CC[C@@H](Oc2cccnc2C(F)(F)F)CC1 [Example 208, (S)-3-(4-(6-(ethylamino)-1-((1s,4R)-4-((2-(trifluoromethyl)pyridin-3-yl)oxy)cyclohexyl)-1H-pyrazolo[4,3-c]pyridin-3-yl)-1H-pyrazol-1-yl)propane-1,2-diol]
< 0.01 | < 0.01 | 0.01 to 0.1 | CCNc1cc2c(cn1)c(-c1cnn(C)c1)nn2[C@H]1CC[C@@H](Oc2nccnc2CC)CC1 [Example 190, N-ethyl-1-((1s,4s)-4-((3-ethylpyrazin-2-yl)oxy)cyclohexyl)-3-(1-methyl-1H-pyrazol-4-yl)-1H-pyrazolo[4,3-c]pyridin-6-amine]
< 0.01 | < 0.01 | 0.01 to 0.1 | CCNc1cc2c(cn1)c(-c1cnn(C[C@H](O)CO)c1)nn2[C@H]1CC[C@@H](Oc2ccc(F)cc2F)CC1 [Example 444, (S)-3-(4-(1-((1s,4R)-4-(2,4-difluorophenoxy)cyclohexyl)-6-(ethylamino)-1H-pyrazolo[4,3-c]pyridin-3-yl)-1H-pyrazol-1-yl)propane-1,2-diol]
< 0.01 | < 0.01 | < 0.01 | CCNc1cc2c(cn1)c([C@H]1CC[C@@H](N(C)C)CC1)nn2[C@H]1CC[C@@H](Oc2nccc(C(F)(F)F)c2F)CC1 [Example 351, 3-((1s,4S)-4-(dimethylamino)cyclohexyl)-N-ethyl-1-((1s,4S)-4-((3-fluoro-4-(trifluoromethyl)pyridin-2-yl)oxy)cyclohexyl)-1H-pyrazolo[4,3-c]pyridin-6-amine]
< 0.01 | < 0.01 | < 0.01 | CCNc1cc2c(cn1)c(C1CCNCC1)nn2[C@H]1CC[C@@H](Oc2nccc(C(F)(F)F)c2F)CC1 [Example 319, N-ethyl-1-((1s,4s)-4-((3-fluoro-4-(trifluoromethyl)pyridin-2-yl)oxy)cyclohexyl)-3-(piperidin-4-yl)-1H-pyrazolo[4,3-c]pyridin-6-amine]
< 0.01 | < 0.01 | < 0.01 | CCNc1cc2c(cn1)c(-c1cnn(C[C@@H](O)CO)c1)nn2[C@H]1CC[C@@H](Oc2cccc(Cl)c2F)CC1 [Example 434, (R)-3-(4-(1-((1s,4S)-4-(3-chloro-2-fluorophenoxy)cyclohexyl)-6-(ethylamino)-1H-pyrazolo[4,3-c]pyridin-3-yl)-1H-pyrazol-1-yl)propane-1,2-diol]
< 0.01 | < 0.01 | < 0.01 | CNc1cc2c(cn1)c(-c1cnn(C(CO)CO)c1)nn2[C@H]1CC[C@@H](Oc2cccnc2C(F)(F)F)CC1 [Example 210, 2-(4-(6-(methylamino)-1-((1 s,4s)-4-((2-(trifluoromethyl)pyridin-3-yl)oxy)cyclohexyl)-1H-pyrazolo[4,3-c]pyridin-3-yl)-1H-pyrazol-1-yl)propane-1,3-diol]
< 0.01 | < 0.01 | 0.1 to 1 | CCNc1cc2c(cn1)c(-c1cnc(C)o1)nn2[C@H]1CC[C@@H](Oc2nccc(C(F)(F)F)c2F)CC1 [Example 308, N-ethyl-1-((1s,4s)-4-((3-fluoro-4-(trifluoromethyl)pyridin-2-yl)oxy)cyclohexyl)-3-(2-methyloxazol-5-yl)-1H-pyrazolo[4,3-c]pyridin-6-amine]
